Data reported in patent US7342033B2 (Vereniging Voor Christelijk Wetenschappelijk Onderwijs, priority 1999, dated 2008).

Tested on: multiple sclerosis patients
Experiment: Adverse events and tolerability in the same study
Format: in vivo, human
Description: We selected 9 women and 7 men (aged 30-66 years) with documented progression during the 24 months before inclusion, from a natural history study. Kurtzke's EDSS scores were between 3.0 (inclusive) and 7.5 (inclusive). All adverse events were documented; safety lab consisted of serum transaminases (monthly for 3 months and every 3 months thereafter) and hematology (CBC and differential every 6 months) after the start of treatment. The study was approved by the hospital ethics committee, and all patients gave informed consent.

Which results are given for `Nc1nc2ccc(OC(F)(F)F)cc2s1` [riluzole, (6-trifluoromethoxy)-2-benzothiazolamine)]?
Medically severe adverse effects (14 patients who took medication for over three months): not observed; Patients who needed intermittent reduction in dosage of study drug (of 16 patients, riluzole 2×50 mg daily): Five; Patients who discontinued treatment because of side effects (of 16 patients, headache in one, increase in spasticity in the other): Two
